In brackets after ≈: the same amount, converted by molar mass. Several values for one entry are separate records, joined by “and”; a condition that tells them apart may be missing. Equal values may be shown once.
Tests used:
murine PGP [1] = target: T1, murine PGP (Mus musculus, UniProt Q8CHP8); assay: SAR: CP1, CP2 and analogs on PGP phosphatase activity (PG); format: biochemical; set-up: His6 (N, cleaved yes); made in house; host or cells: Escherichia coli BL21 (DE3), pETM11, co-expressed with groES-groEL-tig; conditions: for inhibition of mPGP activity at 40 µM CP compared to DMSO control (%): single experiments Exp #1-3
T1 sequence (Q8CHP8 1-321): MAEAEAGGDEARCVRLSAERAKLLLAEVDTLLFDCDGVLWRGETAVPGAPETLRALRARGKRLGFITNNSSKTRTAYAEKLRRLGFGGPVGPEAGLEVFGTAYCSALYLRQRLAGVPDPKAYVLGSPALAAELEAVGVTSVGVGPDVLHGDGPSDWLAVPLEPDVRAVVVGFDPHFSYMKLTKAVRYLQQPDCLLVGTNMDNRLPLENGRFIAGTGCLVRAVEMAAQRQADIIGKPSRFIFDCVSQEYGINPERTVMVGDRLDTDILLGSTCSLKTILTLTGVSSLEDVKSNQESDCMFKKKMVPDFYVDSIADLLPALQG

[2] = Compound solubility in 100% DMSO
murine PGP [3] = target: T1, murine PGP

Compound | inhibition of mPGP activity at 40 µM CP compared to DMSO control (%) (murine PGP [1]) | mPGP activity in presence of CP relative to DMSO controls, mPGP on PG (norm.) (murine PGP [1]; CP log[M] -4.69897) | mPGP activity in presence of CP relative to DMSO controls, mPGP on PG (norm.) (murine PGP [1]; CP log[M] -5) | mPGP activity in presence of CP relative to DMSO controls, mPGP on PG (norm.) (murine PGP [1]; CP log[M] -5.30103) | mPGP activity in presence of CP relative to DMSO controls, mPGP on PG (norm.) (murine PGP [1]; CP log[M] -5.60206) | mPGP activity in presence of CP relative to DMSO controls, mPGP on PG (norm.) (murine PGP [1]; CP log[M] -5.90309) | solubility in 100% DMSO [2] [mM] | mPGP activity in presence of CP relative to DMSO controls, mPGP on PG (norm.) (murine PGP [1]; CP log[M] -4.39794) | mPGP activity in presence of CP relative to DMSO controls, mPGP on PG (norm.) (murine PGP [1]; CP log[M] -6.20412) | mPGP activity in presence of CP relative to DMSO controls, mPGP on PG (norm.) (murine PGP [1]; CP log[M] -6.50515) | mPGP activity in presence of CP relative to DMSO controls, mPGP on PG (norm.) (murine PGP [1]; CP log[M] -6.80618) | mPGP activity in presence of CP relative to DMSO controls, mPGP on PG (norm.) (murine PGP [1]; CP log[M] -7.10721) | other results
O=C(O)c1ccccc1N1C(=O)c2ccc(Oc3ccc4c(c3)C(=O)N(c3ccccc3C(=O)O)C4=O)cc2C1=O [1B] | 29.6196% and 23.1638% and 21.6216% |  |  |  |  |  |  |  |  |  |  |  | 
O=C(O)c1cccc(NC(=O)c2ccc(Oc3ccc(C(=O)Nc4cccc(C(=O)O)c4)cc3)cc2)c1 [1C] | 57.0652% and 64.9718% and 66.7954% | 0.5416 and 0.5073 and 0.4404 | 0.7056 and 0.6098 and 0.6376 | 0.8 and 0.7439 and 0.7317 | 0.9101 and 0.8268 and 0.7615 | 0.8683 and 0.8326 |  |  |  |  |  |  | mPGP activity in presence of CP relative to DMSO controls, mPGP on PG (norm.) (murine PGP [1]; CP log[M] -4): 0.1618 and 0.1854 and 0.172; mPGP activity in presence of CP relative to DMSO controls, mPGP on PG (norm.) (murine PGP [1]; CP log[M] -4.12494): 0.2268 and 0.2271; mPGP activity in presence of CP relative to DMSO controls, mPGP on PG (norm.) (murine PGP [1]; CP log[M] -4.30103): 0.3124 and 0.2854 and 0.2844; mPGP activity in presence of CP relative to DMSO controls, mPGP on PG (norm.) (murine PGP [1]; CP log[M] -4.60206): 0.427 and 0.4195 and 0.4312; mPGP activity in presence of CP relative to DMSO controls, mPGP on PG (norm.) (murine PGP [1]; CP log[M] -4.82391): 0.6225 and 0.5805 and 0.5711
O=C(O)c1ccccc1NC(=O)c1ccccc1Oc1ccccc1C(=O)Nc1ccccc1C(=O)O [1D] | 14.6739% and 27.6836% and 20.8494% |  |  |  |  |  |  |  |  |  |  |  | 
COc1ccc(C(=O)Nc2ccccc2C(=O)O)cc1 [1E] | 33.1522% and 38.1356% and 45.1737% |  |  |  |  |  |  |  |  |  |  |  | 
O=C(O)c1cc2ccccc2c(-c2c(O)c(C(=O)O)cc3ccccc23)c1O [GYJACFGQPFXKCA-UHFFFAOYSA-N] |  |  |  |  |  |  |  |  |  |  |  |  | IC50 (murine PGP [3]): > 50 µM

Second part, led by results:

inhibition of mPGP activity at 40 µM CP compared to DMSO control (%) (murine PGP [1]) | mPGP activity in presence of CP relative to DMSO controls, mPGP on PG (norm.) (murine PGP [1]; CP log[M] -4.69897) | mPGP activity in presence of CP relative to DMSO controls, mPGP on PG (norm.) (murine PGP [1]; CP log[M] -5) | mPGP activity in presence of CP relative to DMSO controls, mPGP on PG (norm.) (murine PGP [1]; CP log[M] -5.30103) | mPGP activity in presence of CP relative to DMSO controls, mPGP on PG (norm.) (murine PGP [1]; CP log[M] -5.60206) | mPGP activity in presence of CP relative to DMSO controls, mPGP on PG (norm.) (murine PGP [1]; CP log[M] -5.90309) | solubility in 100% DMSO [2] [mM] | mPGP activity in presence of CP relative to DMSO controls, mPGP on PG (norm.) (murine PGP [1]; CP log[M] -4.39794) | mPGP activity in presence of CP relative to DMSO controls, mPGP on PG (norm.) (murine PGP [1]; CP log[M] -6.20412) | mPGP activity in presence of CP relative to DMSO controls, mPGP on PG (norm.) (murine PGP [1]; CP log[M] -6.50515) | mPGP activity in presence of CP relative to DMSO controls, mPGP on PG (norm.) (murine PGP [1]; CP log[M] -6.80618) | mPGP activity in presence of CP relative to DMSO controls, mPGP on PG (norm.) (murine PGP [1]; CP log[M] -7.10721) | Compound | other results
97.486% and 99.4924% and 100.275% | 0.04813 and 0.03947 and 0.05013 | 0.08824 and 0.08421 and 0.08772 | 0.1631 and 0.1684 and 0.1604 | 0.2914 and 0.2711 and 0.2932 | 0.4679 and 0.4553 and 0.4662 | 10 (≈ 5.84 mg/mL) | 0.02406 and 0.01842 and 0.02506 | 0.6203 and 0.5816 and 0.584 | 0.7781 and 0.7842 and 0.7769 | 0.8663 and 0.8184 and 0.817 | 0.9358 and 0.8579 and 0.8521 | O=C(O)c1cc(Cc2ccc(NC(=O)c3ccccc3[N+](=O)[O-])c(C(=O)O)c2)ccc1NC(=O)c1ccccc1[N+](=O)[O-] [2B] | mPGP activity in presence of CP relative to DMSO controls, mPGP on PG (norm.) (murine PGP [1]; CP log[M] -7.40824): 0.9332 and 0.9316 and 0.9248; PGP inhibitory potency compared to parental compound (murine PGP [1]; PG dephosphorylation assay): slightly more potent than the parental compound
80.4469% and 79.9492% and 79.3956% | 0.388 and 0.3967 and 0.3732 | 0.5639 and 0.5534 and 0.5023 | 0.6916 and 0.6556 and 0.5915 | 0.788 and 0.7767 and 0.6502 | 0.8578 and 0.8527 and 0.8404 |  | 0.2193 and 0.2518 and 0.2324 | 0.853 and 0.8789 and 0.9014 | 0.9181 and 0.905 and 0.9155 | 0.9349 and 0.9264 and 0.946 | 1.002 and 0.9691 and 0.9624 | O=C(Cc1cccs1)Nc1ccc(Cc2ccc(NC(=O)Cc3cccs3)c(C(=O)O)c2)cc1C(=O)O [2C] | mPGP activity in presence of CP relative to DMSO controls, mPGP on PG (norm.) (murine PGP [1]; CP log[M] -4.09691): 0.1542 and 0.1663 and 0.1408
93.8547% and 93.1472% and 91.7582% | 0.1303 and 0.1085 and 0.126 | 0.1756 and 0.1746 and 0.1485 | 0.2578 and 0.2672 and 0.2745 | 0.4504 and 0.4206 and 0.395 | 0.5949 and 0.6032 and 0.5826 | 50 (≈ 25.3 mg/mL) | 0.09632 and 0.08995 and 0.05602 | 0.7592 and 0.7328 and 0.6807 | 0.8952 and 0.8386 and 0.8543 | 0.932 and 0.8836 and 0.7843 | 0.9207 and 0.918 and 0.9468 | O=C(Nc1ccc(Cc2ccc(NC(=O)c3cccs3)c(C(=O)O)c2)cc1C(=O)O)c1cccs1 [2D] | mPGP activity in presence of CP relative to DMSO controls, mPGP on PG (norm.) (murine PGP [1]; CP log[M] -7.40824): 0.9632 and 0.9206 and 0.9552
43.2961% and 38.3249% and 35.989% |  |  |  |  |  | 100 (≈ 63.1 mg/mL) |  |  |  |  |  | Cc1nnc(SCC(=O)Nc2ccc(Cc3ccc(NC(=O)CSc4nnc(C)s4)c(C(=O)O)c3)cc2C(=O)O)s1 [2E] | 

— article PMC9652372, “Glycolytic flux control by drugging phosphoglycolate phosphatase” (Nature Communications, 2022)
